Experimental data from US10870638B2, “Pyridazinone compound or its salt, and herbicide containing it” (ISHIHARA SANGYO KAISHA, LTD., priority 2016, dated 2020).

Columns and labels:
Type in all cases: in vivo
Conditions in all cases: active ingredient amount 31 g/ha, 14th day after application
[1] = tested on: prickly sida (Sida spinosa L.); test: Test Example 2: soil application on the day after sowing, growth inhibition rate on 14th day
Outline: (§1)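 Herbicidal effect is assessed on pot-grown plants after a soil spray applied the day after sowing at prescribed active ingredient rates. Scoring occurs visually at day 14 as growth inhibition (%).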

corn (Zea mays L.) [2] = test: as above
Outline: as §1

[3] = tested on: barnyardgrass (Echinochloa crus-qalli L.); test: as above
Outline: as §1

[4] = tested on: velvetleaf (Abutilon theophrasti MEDIC.); test: as above
Outline: as §1

[5] = tested on: crabgrass (Digitaris sanquinalis L.); test: as above
Outline: as §1

[6] = tested on: soybean (Glycine max Merr.); test: as above
Outline: as §1

[7] = tested on: wheat (Triticum aestivum L.); test: as above
Outline: as §1

[8] = tested on: redroot pigweed (Amaranthus retroflexus L.); test: as above
Outline: as §1

rice (Oryza sativa L.) [9] = test: as above
Outline: as §1

[10] = tested on: green foxtail (Setaria viridis L.); test: as above
Outline: as §1

corn (Zea mays L.) [11] = test: Test Example 1: foliar treatment, growth inhibition rate on 14th day
Outline: (§2)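 Using a small sprayer, formulated compound in water (0.1 vol % surfactant, 1,000 L/ha) was applied to seedlings grown from seed in upland soil. Fourteen days on, growth state was observed and expressed as percent inhibition from 0 to 100.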

[12] = tested on: crabgrass (Digitaria sanquinalis L.); test: as above
Outline: as §2

[13] = tested on: barnyardgrass (Echinochloa crus-qalli L.); test: as above
Outline: as §2

[14] = tested on: italian ryegrass (Lolium multiflorum Lam.); test: as above
Outline: as §2

[15] = tested on: soybean (Glycine max Merr.); test: as above
Outline: as §2

[16] = tested on: wheat (Triticum aestivum L.); test: as above
Outline: as §2

[17] = tested on: redroot pigweed (Amaranthus retroflexus L.); test: as above
Outline: as §2

rice (Oryza sativa L.) [18] = test: as above
Outline: as §2

[19] = tested on: wild oat (Avena fatua L.); test: as above
Outline: as §2

[20] = tested on: green foxtail (Setaria viridis L.); test: as above
Outline: as §2

[21] = visual, 0 = non-treated, 100 = complete kill

COCOc1c(C)nn(C)c(=O)c1-c1cc(Oc2cnc3cc(Cl)ccc3n2)ccc1C [Compound 3-40]
Growth inhibition rate (%) Prickly sida [1]: 0%
Growth inhibition rate (%) Corn (corn (Zea mays L.) [2]): 10%
Growth inhibition rate (%) Barnyardgrass [3]: 90%
Growth inhibition rate (%) Velvetleaf [4]: 0%
Growth inhibition rate (%) Crabgrass [5]: 10%
Growth inhibition rate (%) Soybean [6]: 0%
Growth inhibition rate (%) Wheat [7]: 0%
Growth inhibition rate (%) Redroot pigweed [8]: 0%
Growth inhibition rate (%) Rice (rice (Oryza sativa L.) [9]): 10%
Growth inhibition rate (%) Green foxtail [10]: 40%
Growth inhibition rate (%) Corn (corn (Zea mays L.) [11]): 25%
Growth inhibition rate (%) Crabgrass [12]: 99%
Growth inhibition rate (%) Barnyardgrass [13]: 99%
Growth inhibition rate (%) Italian ryegrass [14]: 98%
Growth inhibition rate (%) Soybean [15]: 10%
Growth inhibition rate (%) Wheat [16]: 98%
Growth inhibition rate (%) Redroot pigweed [17]: 0%
Growth inhibition rate (%) Rice (rice (Oryza sativa L.) [18]): 85%
Growth inhibition rate (%) Wild oat [19]: 98%
Growth inhibition rate (%) Green foxtail [20]: 99%

Cc1ccc(Oc2cnc3cc(Cl)ccc3n2)cc1-c1c(OC(=O)C(F)(F)F)c(C)nn(C)c1=O [Compound 3-52]
Growth inhibition rate (%) Prickly sida [1]: 0%
Growth inhibition rate (%) Corn (corn (Zea mays L.) [2]): 0%
Growth inhibition rate (%) Barnyardgrass [3]: 99%
Growth inhibition rate (%) Velvetleaf [4]: 0%
Growth inhibition rate (%) Crabgrass [5]: 95%
Growth inhibition rate (%) Soybean [6]: 0%
Growth inhibition rate (%) Wheat [7]: 0%
Growth inhibition rate (%) Redroot pigweed [8]: 0%
Growth inhibition rate (%) Rice (rice (Oryza sativa L.) [9]): 0%
Growth inhibition rate (%) Green foxtail [10]: 100%
Growth inhibition rate (%) Corn (corn (Zea mays L.) [11]; [21]): 35%
Growth inhibition rate (%) Crabgrass [12, 21]: 95%
Growth inhibition rate (%) Barnyardgrass [13, 21]: 100%
Growth inhibition rate (%) Italian ryegrass [14, 21]: 90%
Growth inhibition rate (%) Soybean [15, 21]: 20%
Growth inhibition rate (%) Wheat [16, 21]: 10%
Growth inhibition rate (%) Redroot pigweed [17, 21]: 0%
Growth inhibition rate (%) Rice (rice (Oryza sativa L.) [18]; [21]): 70%
Growth inhibition rate (%) Wild oat [19, 21]: 20%
Growth inhibition rate (%) Green foxtail [20, 21]: 100%

Cc1ccc(Oc2nc3ccc(Br)cc3o2)cc1-c1c(O)cnn(C)c1=O [Compound 2-181]
Growth inhibition rate (%) Prickly sida [1]: 0%
Growth inhibition rate (%) Corn (corn (Zea mays L.) [2]): 0%
Growth inhibition rate (%) Barnyardgrass [3]: 90%
Growth inhibition rate (%) Velvetleaf [4]: 0%
Growth inhibition rate (%) Crabgrass [5]: 0%
Growth inhibition rate (%) Soybean [6]: 0%
Growth inhibition rate (%) Wheat [7]: 0%
Growth inhibition rate (%) Redroot pigweed [8]: 0%
Growth inhibition rate (%) Rice (rice (Oryza sativa L.) [9]): 20%
Growth inhibition rate (%) Green foxtail [10]: 40%
Growth inhibition rate (%) Corn (corn (Zea mays L.) [11]): 70%
Growth inhibition rate (%) Crabgrass [12]: 99%
Growth inhibition rate (%) Barnyardgrass [13]: 100%
Growth inhibition rate (%) Italian ryegrass [14]: 93%
Growth inhibition rate (%) Soybean [15]: 0%
Growth inhibition rate (%) Wheat [16]: 35%
Growth inhibition rate (%) Redroot pigweed [17]: 0%
Growth inhibition rate (%) Rice (rice (Oryza sativa L.) [18]): 10%
Growth inhibition rate (%) Wild oat [19]: 83%
Growth inhibition rate (%) Green foxtail [20]: 100%

CCn1ncc(OC(C)=O)c(-c2cc(Oc3nc4ccc(Cl)cc4o3)ccc2C)c1=O [Compound 2-169]
Growth inhibition rate (%) Prickly sida [1]: 0%
Growth inhibition rate (%) Corn (corn (Zea mays L.) [2]): 0%
Growth inhibition rate (%) Barnyardgrass [3]: 70%
Growth inhibition rate (%) Velvetleaf [4]: 0%
Growth inhibition rate (%) Crabgrass [5]: 98%
Growth inhibition rate (%) Soybean [6]: 0%
Growth inhibition rate (%) Wheat [7]: 0%
Growth inhibition rate (%) Redroot pigweed [8]: 0%
Growth inhibition rate (%) Rice (rice (Oryza sativa L.) [9]): 0%
Growth inhibition rate (%) Green foxtail [10]: 98%
Growth inhibition rate (%) Corn (corn (Zea mays L.) [11]): 98%
Growth inhibition rate (%) Crabgrass [12]: 100%
Growth inhibition rate (%) Barnyardgrass [13]: 100%
Growth inhibition rate (%) Italian ryegrass [14]: 85%
Growth inhibition rate (%) Soybean [15]: 40%
Growth inhibition rate (%) Wheat [16]: 85%
Growth inhibition rate (%) Redroot pigweed [17]: 0%
Growth inhibition rate (%) Rice (rice (Oryza sativa L.) [18]): 83%
Growth inhibition rate (%) Wild oat [19]: 88%
Growth inhibition rate (%) Green foxtail [20]: 100%

CCn1nc(C)c(OC(C)=O)c(-c2cc(Oc3nc4ccc(Cl)cc4o3)ccc2C)c1=O [Compound 2-177]
Growth inhibition rate (%) Prickly sida [1]: 0%
Growth inhibition rate (%) Corn (corn (Zea mays L.) [2]): 0%
Growth inhibition rate (%) Barnyardgrass [3]: 90%
Growth inhibition rate (%) Velvetleaf [4]: 0%
Growth inhibition rate (%) Crabgrass [5]: 98%
Growth inhibition rate (%) Soybean [6]: 0%
Growth inhibition rate (%) Wheat [7]: 0%
Growth inhibition rate (%) Redroot pigweed [8]: 0%
Growth inhibition rate (%) Rice (rice (Oryza sativa L.) [9]): 30%
Growth inhibition rate (%) Green foxtail [10]: 90%
Growth inhibition rate (%) Corn (corn (Zea mays L.) [11]): 83%
Growth inhibition rate (%) Crabgrass [12]: 100%
Growth inhibition rate (%) Barnyardgrass [13]: 100%
Growth inhibition rate (%) Italian ryegrass [14]: 98%
Growth inhibition rate (%) Soybean [15]: 30%
Growth inhibition rate (%) Wheat [16]: 90%
Growth inhibition rate (%) Redroot pigweed [17]: 0%
Growth inhibition rate (%) Rice (rice (Oryza sativa L.) [18]): 65%
Growth inhibition rate (%) Wild oat [19]: 98%
Growth inhibition rate (%) Green foxtail [20]: 99%

Cc1ccc(Oc2nc3ccc(Cl)cc3s2)cc1-c1c(O)c(C)nn(C)c1=O [Compound 2-10]
Growth inhibition rate (%) Prickly sida [1]: 0%
Growth inhibition rate (%) Corn (corn (Zea mays L.) [2]): 30%
Growth inhibition rate (%) Barnyardgrass [3]: 95%
Growth inhibition rate (%) Velvetleaf [4]: 0%
Growth inhibition rate (%) Crabgrass [5]: 50%
Growth inhibition rate (%) Soybean [6]: 0%
Growth inhibition rate (%) Wheat [7]: 0%
Growth inhibition rate (%) Redroot pigweed [8]: 0%
Growth inhibition rate (%) Rice (rice (Oryza sativa L.) [9]): 40%
Growth inhibition rate (%) Green foxtail [10]: 85%
Growth inhibition rate (%) Corn (corn (Zea mays L.) [11]): 0%
Growth inhibition rate (%) Crabgrass [12]: 40%
Growth inhibition rate (%) Barnyardgrass [13]: 99%
Growth inhibition rate (%) Italian ryegrass [14]: 10%
Growth inhibition rate (%) Soybean [15]: 30%
Growth inhibition rate (%) Wheat [16]: 10%
Growth inhibition rate (%) Redroot pigweed [17]: 0%
Growth inhibition rate (%) Rice (rice (Oryza sativa L.) [18]): 0%
Growth inhibition rate (%) Wild oat [19]: 10%
Growth inhibition rate (%) Green foxtail [20]: 99%

CCn1ncc(O)c(-c2cc(Oc3ncc(C(F)(F)F)cc3Cl)ccc2C)c1=O [1-157]
Growth inhibition rate (%) Prickly sida [1]: 0%
Growth inhibition rate (%) Corn (corn (Zea mays L.) [2]): 0%
Growth inhibition rate (%) Barnyardgrass [3]: 100%
Growth inhibition rate (%) Velvetleaf [4]: 0%
Growth inhibition rate (%) Crabgrass [5]: 99%
Growth inhibition rate (%) Soybean [6]: 30%
Growth inhibition rate (%) Wheat [7]: 0%
Growth inhibition rate (%) Redroot pigweed [8]: 0%
Growth inhibition rate (%) Rice (rice (Oryza sativa L.) [9]): 40%
Growth inhibition rate (%) Green foxtail [10]: 100%
Growth inhibition rate (%) Corn (corn (Zea mays L.) [11]): 100%
Growth inhibition rate (%) Crabgrass [12]: 100%
Growth inhibition rate (%) Barnyardgrass [13]: 100%
Growth inhibition rate (%) Italian ryegrass [14]: 99%
Growth inhibition rate (%) Soybean [15]: 20%
Growth inhibition rate (%) Wheat [16]: 93%
Growth inhibition rate (%) Redroot pigweed [17]: 0%
Growth inhibition rate (%) Rice (rice (Oryza sativa L.) [18]): 80%
Growth inhibition rate (%) Wild oat [19]: 100%
Growth inhibition rate (%) Green foxtail [20]: 100%

CC(=O)Oc1c(C)nn(C)c(=O)c1-c1cc(Oc2cc(C(F)(F)F)c(C(F)(F)F)cn2)ccc1C [Compound 2-126]
Growth inhibition rate (%) Prickly sida [1]: 0%
Growth inhibition rate (%) Corn (corn (Zea mays L.) [2]): 30%
Growth inhibition rate (%) Barnyardgrass [3]: 100%
Growth inhibition rate (%) Velvetleaf [4]: 0%
Growth inhibition rate (%) Crabgrass [5]: 98%
Growth inhibition rate (%) Soybean [6]: 0%
Growth inhibition rate (%) Wheat [7]: 10%
Growth inhibition rate (%) Redroot pigweed [8]: 0%
Growth inhibition rate (%) Rice (rice (Oryza sativa L.) [9]): 0%
Growth inhibition rate (%) Green foxtail [10]: 100%
Growth inhibition rate (%) Corn (corn (Zea mays L.) [11]): 100%
Growth inhibition rate (%) Crabgrass [12]: 100%
Growth inhibition rate (%) Barnyardgrass [13]: 100%
Growth inhibition rate (%) Italian ryegrass [14]: 100%
Growth inhibition rate (%) Soybean [15]: 20%
Growth inhibition rate (%) Wheat [16]: 99%
Growth inhibition rate (%) Redroot pigweed [17]: 0%
Growth inhibition rate (%) Rice (rice (Oryza sativa L.) [18]): 93%
Growth inhibition rate (%) Wild oat [19]: 100%
Growth inhibition rate (%) Green foxtail [20]: 100%

Cc1ccc(Oc2ccc(C(F)(F)F)cn2)cc1-c1c(O)c(C)nn(C)c1=O [Compound 2-3]
Growth inhibition rate (%) Prickly sida [1]: 0%
Growth inhibition rate (%) Corn (corn (Zea mays L.) [2]): 0%
Growth inhibition rate (%) Barnyardgrass [3]: 50%
Growth inhibition rate (%) Velvetleaf [4]: 0%
Growth inhibition rate (%) Crabgrass [5]: 80%
Growth inhibition rate (%) Soybean [6]: 0%
Growth inhibition rate (%) Wheat [7]: 0%
Growth inhibition rate (%) Redroot pigweed [8]: 0%
Growth inhibition rate (%) Rice (rice (Oryza sativa L.) [9]): 20%
Growth inhibition rate (%) Green foxtail [10]: 98%
Growth inhibition rate (%) Corn (corn (Zea mays L.) [11]): 10%
Growth inhibition rate (%) Crabgrass [12]: 15%
Growth inhibition rate (%) Barnyardgrass [13]: 85%
Growth inhibition rate (%) Italian ryegrass [14]: 20%
Growth inhibition rate (%) Soybean [15]: 10%
Growth inhibition rate (%) Wheat [16]: 30%
Growth inhibition rate (%) Redroot pigweed [17]: 0%
Growth inhibition rate (%) Rice (rice (Oryza sativa L.) [18]): 10%
Growth inhibition rate (%) Wild oat [19]: 35%
Growth inhibition rate (%) Green foxtail [20]: 85%
